Measurements reported in PubChem BioAssay (NCI).
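Tested at 5 concentrations; 48 h exposure; 96-well plates; endpoints linearly interpolated, else capped at highest concentration. TGI marks complete inhibition of growth.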

Columns and labels:
Assay in all cases: DTP human tumour cell line panel, 48 h
[1] = tested on: SK-MEL-2 melanoma
[2] = tested on: UACC-257 melanoma
[3] = tested on: HL-60(TB) leukemia
[4] = tested on: RXF 393 renal
[5] = tested on: CCRF-CEM leukemia
[6] = tested on: HCT-116 colon
[7] = tested on: MDA-MB-435
[8] = tested on: SF-295 CNS
[9] = tested on: SF-539 CNS
[10] = tested on: SK-OV-3 ovarian
[11] = tested on: ACHN renal
[12] = tested on: UACC-62 melanoma
[13] = tested on: A498 renal
[14] = tested on: SW-620 colon
[15] = tested on: SN12C renal
[16] = tested on: OVCAR-8 ovarian
[17] = tested on: SNB-75 CNS
[18] = tested on: BT-549 breast
[19] = tested on: SK-MEL-5 melanoma
[20] = tested on: SNB-19 CNS
[21] = tested on: NCI/ADR-RES ovarian
[22] = tested on: K-562 leukemia
[23] = tested on: HT29 colon
[24] = tested on: PC-3 prostate
[25] = tested on: UO-31 renal
[26] = tested on: MDA-MB-231 breast
[27] = tested on: OVCAR-4 ovarian
[28] = tested on: SK-MEL-28 melanoma
[29] = tested on: OVCAR-3 ovarian
[30] = tested on: NCI-H23 lung
[31] = tested on: RPMI-8226 leukemia
[32] = tested on: HCT-15 colon
[33] = tested on: EKVX NSCLC
[34] = tested on: HOP-92 NSCLC
[35] = tested on: TK-10 renal
[36] = tested on: COLO 205 colon
[37] = tested on: KM12 colon
[38] = tested on: DU-145 prostate
[39] = tested on: M14 melanoma
[40] = tested on: A549 NSCLC
[41] = tested on: SF-268 CNS
[42] = tested on: HOP-62 NSCLC
[43] = tested on: MDA-N
[44] = tested on: 786-0 renal
[45] = tested on: OVCAR-5 ovarian
[46] = tested on: HS 578T breast
[47] = tested on: NCI-H226 lung
[48] = tested on: CAKI-1 renal
[49] = tested on: MCF7 breast
[50] = tested on: U251 CNS
[51] = tested on: MALME-3M melanoma
[52] = tested on: IGROV1 ovarian
[53] = tested on: LOX IMVI melanoma
[54] = tested on: T-47D breast
[55] = tested on: NCI-H460 lung
[56] = tested on: NCI-H522 lung
[57] = tested on: HCC-2998 colon
[58] = tested on: MOLT-4 leukemia
[59] = tested on: SR leukemia

Structure (SMILES): C/C(O)=C/c1nc2sc(C)c(C)c2c(=O)s1
- TGI [1]: 65.1 µM
- TGI [2]: > 100 µM
- TGI [3]: > 100 µM
- TGI [4]: > 100 µM
- TGI [5]: > 100 µM
- TGI [6]: > 100 µM
- TGI [7]: > 100 µM
- TGI [8]: > 100 µM
- TGI [9]: > 100 µM
- TGI [10]: > 100 µM
- TGI [11]: > 100 µM
- TGI [12]: > 100 µM
- TGI [13]: > 100 µM
- TGI [14]: > 100 µM
- TGI [15]: > 100 µM
- TGI [16]: > 100 µM
- TGI [17]: > 100 µM
- TGI [18]: > 100 µM
- TGI [19]: > 100 µM
- TGI [20]: > 100 µM
- TGI [21]: > 100 µM
- TGI [22]: > 100 µM
- TGI [23]: > 100 µM
- TGI [24]: 69.5 µM
- TGI [25]: > 100 µM
- TGI [26]: > 100 µM
- TGI [27]: > 100 µM
- TGI [28]: > 100 µM
- TGI [29]: > 100 µM
- TGI [30]: > 100 µM
- TGI [31]: > 100 µM
- TGI [32]: > 100 µM
- TGI [33]: > 100 µM
- TGI [34]: > 100 µM
- TGI [35]: > 100 µM
- TGI [36]: > 100 µM
- TGI [37]: > 100 µM
- TGI [38]: > 100 µM
- TGI [39]: > 100 µM
- TGI [40]: > 100 µM
- TGI [41]: > 100 µM
- TGI [42]: > 100 µM
- TGI [43]: > 100 µM
- TGI [44]: > 100 µM
- TGI [45]: > 100 µM
- TGI [46]: 74 µM
- TGI [47]: > 100 µM
- TGI [48]: > 100 µM
- TGI [49]: > 100 µM
- TGI [50]: > 100 µM
- TGI [51]: > 100 µM
- TGI [52]: > 100 µM
- TGI [53]: > 100 µM
- TGI [54]: > 100 µM

Structure (SMILES): CC(C)(C)OC(=O)N1CCC[C@H]1CSC[C@@H]1CCCN1C(=O)OC(C)(C)C
- TGI [1]: 40.6 µM
- TGI [2]: 90.8 µM
- TGI [4]: 69 µM
- TGI [5]: 44.8 µM
- TGI [6]: 78.5 µM
- TGI [7]: 46.7 µM
- TGI [8]: > 100 µM
- TGI [55]: > 100 µM
- TGI [56]: 56 µM
- TGI [10]: > 100 µM
- TGI [11]: 82.2 µM
- TGI [12]: 57.2 µM
- TGI [14]: 96.8 µM
- TGI [15]: > 100 µM
- TGI [16]: > 100 µM
- TGI [17]: 77.2 µM
- TGI [18]: 58.9 µM
- TGI [19]: 32.7 µM
- TGI [20]: > 100 µM
- TGI [21]: 48.9 µM
- TGI [22]: 84.7 µM
- TGI [23]: 34.9 µM
- TGI [24]: 82.1 µM
- TGI [25]: 74.9 µM
- TGI [26]: > 100 µM
- TGI [27]: > 100 µM
- TGI [28]: 60 µM
- TGI [29]: 90.3 µM
- TGI [30]: 68.2 µM
- TGI [57]: > 100 µM
- TGI [32]: 92.4 µM
- TGI [58]: 37.5 µM
- TGI [33]: > 100 µM
- TGI [34]: 39.5 µM
- TGI [35]: > 100 µM
- TGI [36]: 30.5 µM
- TGI [37]: 48.2 µM
- TGI [38]: > 100 µM
- TGI [39]: 38.2 µM
- TGI [40]: 87.3 µM
- TGI [41]: > 100 µM
- TGI [42]: > 100 µM
- TGI [43]: > 100 µM
- TGI [44]: > 100 µM
- TGI [45]: > 100 µM
- TGI [46]: 79.3 µM
- TGI [48]: > 100 µM
- TGI [49]: 96.3 µM
- TGI [50]: 90.7 µM
- TGI [51]: 63.5 µM
- TGI [52]: > 100 µM
- TGI [53]: 35.2 µM
- TGI [54]: 80.7 µM

Structure (SMILES): CC(C)c1cc(C(C)C)c(P2(=O)CC3C(Cl)(Cl)C3(C)C2)c(C(C)C)c1 (centres undefined)
- TGI [1]: 24.8 µM
- TGI [2]: 20.9 µM
- TGI [3]: 10.7 µM
- TGI [4]: 28.2 µM
- TGI [5]: 6.03 µM
- TGI [6]: 20.2 µM
- TGI [7]: 26.8 µM
- TGI [8]: 18.6 µM
- TGI [55]: 24.4 µM
- TGI [9]: 27.1 µM
- TGI [56]: 4 µM
- TGI [10]: 31.3 µM
- TGI [11]: 25.1 µM
- TGI [12]: 21.3 µM
- TGI [13]: 26.9 µM
- TGI [14]: 26.4 µM
- TGI [15]: 29.3 µM
- TGI [16]: 27.8 µM
- TGI [17]: 24.8 µM
- TGI [18]: 27.7 µM
- TGI [19]: 22.4 µM
- TGI [20]: 19.4 µM
- TGI [21]: 16 µM
- TGI [22]: > 44.1 µM
- TGI [23]: 24.6 µM
- TGI [24]: 17.8 µM
- TGI [25]: 3.44 µM
- TGI [26]: 24.8 µM
- TGI [27]: 11.8 µM
- TGI [28]: 31.9 µM
- TGI [29]: 20.4 µM
- TGI [30]: 24.3 µM
- TGI [59]: 3.75 µM
- TGI [31]: > 25.5 µM
- TGI [57]: 26.9 µM
- TGI [32]: 25.1 µM
- TGI [58]: > 23.1 µM
- TGI [33]: 31 µM
- TGI [34]: 27.3 µM
- TGI [35]: 24.5 µM
- TGI [36]: 25 µM
- TGI [37]: 28.4 µM
- TGI [38]: 28.9 µM
- TGI [39]: 23.2 µM
- TGI [40]: 25.6 µM
- TGI [41]: 25.3 µM
- TGI [42]: 29 µM
- TGI [43]: 27.1 µM
- TGI [44]: 14.6 µM
- TGI [45]: 30.5 µM
- TGI [46]: 47.8 µM
- TGI [47]: 34.3 µM
- TGI [48]: 9.6 µM
- TGI [49]: 19.5 µM
- TGI [50]: 22 µM
- TGI [51]: 33.2 µM
- TGI [52]: 29.5 µM
- TGI [53]: 21.5 µM
- TGI [54]: 27.7 µM

Structure (SMILES): Cc1cc2c(cc1-c1cc3c(cc1C)C(C(C)C)=C(O)C(=O)/C3=C\Nc1cccc3c(N)cccc13)/C(=C/Nc1cccc3c(N)cccc13)C(=O)C(O)=C2C(C)C
- TGI [1]: > 100 µM
- TGI [2]: > 100 µM
- TGI [3]: > 100 µM
- TGI [4]: > 100 µM
- TGI [5]: > 100 µM
- TGI [6]: > 100 µM
- TGI [7]: > 100 µM
- TGI [8]: > 100 µM
- TGI [55]: > 100 µM
- TGI [56]: > 100 µM
- TGI [10]: > 100 µM
- TGI [11]: > 100 µM
- TGI [12]: > 100 µM
- TGI [13]: > 100 µM
- TGI [14]: > 100 µM
- TGI [15]: > 100 µM
- TGI [16]: > 100 µM
- TGI [17]: > 100 µM
- TGI [18]: > 100 µM
- TGI [19]: > 100 µM
- TGI [20]: > 100 µM
- TGI [21]: > 100 µM
- TGI [22]: > 100 µM
- TGI [23]: > 100 µM
- TGI [24]: > 100 µM
- TGI [25]: > 100 µM
- TGI [26]: > 100 µM
- TGI [27]: > 100 µM
- TGI [28]: > 100 µM
- TGI [29]: > 100 µM
- TGI [30]: > 100 µM
- TGI [59]: > 100 µM
- TGI [31]: > 100 µM
- TGI [57]: > 100 µM
- TGI [32]: > 100 µM
- TGI [58]: > 100 µM
- TGI [33]: > 100 µM
- TGI [34]: > 100 µM
- TGI [35]: > 100 µM
- TGI [36]: > 100 µM
- TGI [37]: > 100 µM
- TGI [38]: > 100 µM
- TGI [39]: > 100 µM
- TGI [40]: > 100 µM
- TGI [41]: > 100 µM
- TGI [42]: > 100 µM
- TGI [43]: > 100 µM
- TGI [44]: > 100 µM
- TGI [45]: > 100 µM
- TGI [46]: > 100 µM
- TGI [47]: > 100 µM
- TGI [48]: > 100 µM
- TGI [49]: > 100 µM
- TGI [50]: > 100 µM
- TGI [51]: > 100 µM
- TGI [52]: > 100 µM
- TGI [53]: > 100 µM
- TGI [54]: > 100 µM
